Results reported in patent US4582827A, “Pesticidal diphenylaziridines” (priority 1983, dated 1986).

Test system: tobacco hornworm (Manduca sexta) larvae
Assay: Tobacco hornworm growth and developmental responses to feeding on diets containing the compounds
Assay type: in vivo
Conditions: for Total No. of Adults: all tests began with 15 larvae; for mean number of eggs: 4 day old females
Experimental: The compounds produced and described in Example 1 were then tested for pesticidal activity against the tobacco hornworm (Manduca sexta). The screening procedure for these tests began with the larval stage and continued through the pupal and adult stages and finally evaluated egg production. The studies thus permitted the evaluation of the effects of the compounds over several subsequent developmental stages in the total life cycle of the insect, giving estimates of acute toxicity (insecticidalor larvicidal activity) as well as prolonged or delayed effects on development (growth regulation) and reproduction (chemosterilization). The latter are of special importance in conjunction with the integrated pest management approach to insect control.
The test compounds were incorporated into the artificial diet of tobacco hornworm larvae and their subsequent growth and developmental responses were monitored using the following parameters: larval mortality including determination of LD50 values, rate of larval development and weight gain, percent pupation, pupal weight and degree of deformities, percent adult emergence and measures of reproductive capacity such as the number of developed ooctyes, fecundity and fertility. The protocol for the screening tests has been developed over a number of years by Dahlman et al., Comp. Biochem. Physiol. 51A, 33, (1975); Comp. Biochem. Physiol., 52A, 105 (1975); Ent. Exp. et Appl., 22, 123 (1977); Palumbo and D. L. Dahlman, J. Econ. Entomol. 71, 674 (1978); D. L. Dahlman, Ent. Exp. et Appl., 24, 327 (1978).
Each treatment used 15 newly ecdysed fifth-instar larvae. Death of larvae within a few hours to several days of initial exposure was considered to be acute toxicity. However, the compounds may reduce the maximum size attained by larvae and/or may retard growth so that larvae require additional time to attain their maximum size. Developmental parameters subsequent to the feeding stage also may be affected. […] Mortality may occur in the pupal stage or emerging adults may have wrinkled wings or other deformities. The number of eggs produced by treated females may be reduced and/or unfertile. Although acute toxicity is desirable in the control of any insect, the delayed effects which result in poor survival and reduced reproductive capacity are significant factors in the long-range program of pest management systems.
Continuous cultures of M. sexta are maintained according to the procedures of Yamamoto, J. Econ. Entomol., 62, p. 1427 (1969). Ingredients of the diet formulation include sugar, casein, wheat germ oil, cholesterol, salt mixture, yeast, vitamins, antioxidants and fungal inhibitors, such as ascorbic acid, sorbic acid, formaldehyde and methyl-p-benzoate. All are incorporated into a liquid agar base which, when poured into holding pans, solidifies to form an adequate substrate upon which the insect larvae feed. Nearly any test material can be uniformly incorporated into such a diet. Thus, exposure to experimental compounds can be evaluated during all or any part of the larval stage. In addition, chronic or long-term effects in subsequent life stages can also be monitored.
The results from these studies, in which the 1,2-diphenylaziridines of Example 1 were incorporated singly into the diet of M. sexta at a concentration of 5 mM are presented in the following Table I.

Compound | % Adult Emergence (5 mM in diet) [%] | % Malformed Adults (5 mM in diet) [%] | % Pupation (5 mM in diet) [%] | Days to Max Wt (5 mM in diet) | Max Larval Wt (5 mM in diet) | Mean No. of Eggs (5 mM in diet) | No. of female Adults (5 mM in diet) | Total No. of Adults (5 mM in diet) | effects on tobacco hornworm development (summary of Tables I and II) | pupal mortality (5 mM in diet) | wrinkled or crumpled wings of moths (5 mM in diet) | pupal mortality (summary of Tables I and II) | feeding time required to attain reduced maximum weight (5 mM in diet) | larval mortality (5 mM in diet) | percent adult emergence (5 mM in diet) | percent pupation (5 mM in diet) | reduction in the maximum weight of hornworm larvae (5 mM in diet) | mean number of eggs (5 mM in diet)
CCc1ccc(N2CC2c2ccccc2Cl)cc1 (stereo not shown) [Compound 16] | 80 | 20 | 87 | 5.5 ± .2 days | 7.48 ± .31 g | 44 | 4 | 12 |  |  |  |  |  |  |  |  |  | 
c1ccc(C2CN2c2ccccc2)cc1 (stereo not shown) [Compound 7, 1,2-diphenylaziridine] | 80 | 0 | 100 | 6.7 ± .2 days | 9.29 ± .17 g | 79 ± 19 | 10 | 12 | had no effect |  |  |  |  |  |  |  |  | 
O=[N+]([O-])c1ccccc1C1CN1c1ccc(Cl)c(Cl)c1 (stereo not shown) [Compound 2] | 47 | 71 | 93 | 6.2 ± .1 days | 8.58 ± .31 g | 83 ± 29 | 5 | 7 |  | significant pupal mortality | observed in significant numbers of moths | caused pupal mortality |  |  |  |  |  | 
Clc1cccc(N2CC2c2ccccc2Cl)c1 (stereo not shown) [Compound 12] | 47 | 57 | 60 | 7.6 ± .8 days | 5.96 ± .40 g | 8 ± 11 | 2 | 7 | reduction in maximum larval weight, percent pupation, and mean number of eggs, and an increase in malformed adults |  | observed in significant numbers of moths |  | extended the feeding time | significant larval mortality | significantly lower than controls | a reduction in percent pupation | 30-50% | significantly reduced the mean number of eggs
Clc1ccccc1C1CN1c1ccccc1 (stereo not shown) [Compound 5] | 40 | 17 | 40 | 7.3 ± 1.4 days | 5.42 ± .42 g | 14 ± 17 | 3 | 6 | reduction in maximum larval weight, percent pupation, and mean number of eggs, and an increase in malformed adults |  |  |  | extended the feeding time | significant larval mortality | significantly lower than controls | a reduction in percent pupation | 30-50% | significantly reduced the mean number of eggs
Clc1ccc(C2CN2c2ccc(Br)cc2)cc1 (stereo not shown) [Compound 9] | 86 | 15 | 93 | 5.0 ± .0 days | 6.46 ± .23 g | 74 ± 14 | 7 | 13 |  |  |  |  |  |  |  |  | 30-50% | 
Brc1ccc(N2CC2c2ccccc2)cc1 (stereo not shown) [Compound 6] | 47 | 27 | 53 | 9.2 ± .5 days | 4.83 ± .42 g | 7 ± 5 | 5 | 7 | reduction in maximum larval weight, percent pupation, and mean number of eggs, and an increase in malformed adults |  | observed in significant numbers of moths |  | extended the feeding time | significant larval mortality | significantly lower than controls | a reduction in percent pupation | 30-50% | significantly reduced the mean number of eggs
O=[N+]([O-])c1cccc(C2CN2c2ccccc2)c1 (stereo not shown) [Compound 4] | 100 | 7 | 100 | 5.1 ± .1 days | 9.01 ± .17 g | 67 ± 16 | 9 | 15 | had no effect |  |  |  |  |  |  |  |  | 
Clc1cccc(C2CN2c2ccc(Br)cc2)c1 (stereo not shown) [Compound 8] | 53 | 50 | 60 | 7.8 ± .6 days | 4.84 ± .19 g | 1 ± 0 | 4 | 8 | reduction in maximum larval weight, percent pupation, and mean number of eggs, and an increase in malformed adults |  | observed in significant numbers of moths |  | extended the feeding time | significant larval mortality | significantly lower than controls | a reduction in percent pupation | 30-50% | significantly reduced the mean number of eggs
